Experimental data: patent publication US8586552B2, “4,6-substituted 2,5-dideoxystreptamine aminoglycoside antibiotics” (SelectX Pharmaceuticals, Inc., priority 2012, dated 2013)
Converted amounts (≈) assume the structure as drawn.

What was measured:
Format in all cases: cell-based
[1] = tested on: fifty resistant contemporary clinical isolates of Klebsiella pneumoniae; test: MIC90 against panel of resistant clinical isolates of Klebsiella pneumoniae; conditions: Klebsiella pneumoniae; fifty resistant contemporary clinical isolates, reference antibiotics
From the text: Using this stringent Klebsiella pneumoniae panel, we tested a subset of compounds of the invention.

[2] = tested on: more than fifty resistant contemporary clinical isolates of Pseudomonas aeruginosa; test: MIC90 against panel of resistant clinical isolates of Pseudomonas aeruginosa; conditions: Pseudomonas aeruginosa
From the text: To assess this, a panel of more than fifty resistant contemporary clinical isolates of Pseudomonas aeruginosa were obtained from multiple sources including JMI Laboratories (North Liberty, Iowa), Pfizer (Groton, Conn.), Micromyx (Kalamazoo, Mich.), Dr. J. Chow (Wayne State University). Strains were characterized for resistance to a wide variety of classes of antibiotics including aminoglycosides, β-lactams and fluoroquinolones. […] This reflects the difficulty in treating clinical Pseudomonas aeruginosa infections. […] Using this stringent panel, we tested a subset of compounds of the invention (Table 4).

[3] = tested on: Pseudomonas aeruginosa PR2 (clinical isolate with intermediate aminoglycoside resistance); test: MIC against Pseudomonas aeruginosa clinical isolate PR2; conditions: Pseudomonas aeruginosa resistant strain PR2
From the text: (§1) Pseudomonas aeruginosa is a prominent nosocomial pathogen. In addition to intrinsic antibiotic resistance to several antibiotics, Pseudomonas has acquired multiple additional mechanisms of resistance. As a result, therapeutic options for the treatment of infections caused by Pseudomonas aeruginosa are limited. We acquired clinical isolates of Pseudomonas aeruginosa (Micromyx LLC, Kalamazoo, Mich.), and used this panel to test compounds for Pseudomonicidal activity. […] For each strain and antibiotic, the mechanism(s) of resistance was inferred from the resistance profile. The presence of specific AGMEs was confirmed by colony PCR.

[4] = tested on: Pseudomonas aeruginosa PR1 (clinical isolate with intermediate aminoglycoside resistance); test: MIC against Pseudomonas aeruginosa clinical isolate PR1; conditions: Pseudomonas aeruginosa resistant strain PR1
From the text: as §1

[5] = tested on: Pseudomonas aeruginosa PR3 (high-level, efflux-mediated, pan-aminoglycoside resistance); test: MIC against Pseudomonas aeruginosa clinical isolate PR3; conditions: for MIC PR3: Pseudomonas aeruginosa resistant strain PR3; for MIC: Pseudomonas aeruginosa, read-out: MIC PR3
From the text: as §1

[6] = tested on: Pseudomonas aeruginosa (Pae, PAWT, ATCC #27853); test: MIC against Pseudomonas aeruginosa reference strain PAWT; conditions: Pseudomonas aeruginosa wild type PAWT; for MIC: ATCC27853
From the text: (§2) For evaluation of efficacy, we assembled panels of representative gram-negative pathogens, including Pseudomonas aeruginosa (Pae, PAWT, ATCC #27853), Klebsiella pneumoniae (Kpn, KPWT, ATCC #700603), Acinetobacter baumannii (Aba, ABWT, ATCC #BAA-747) and Escherichia coli (Eco, ECWT, ATCC #25922). These reference strains are useful indicator organisms to characterize compound activity against bacteria from a pathogenic genus in the absence of multiple resistance mechanisms. Two strains (PAWT and ECWT) are reference strains cited within the Clinical and Laboratory Standards Institute (CLSI) Standards for susceptibility testing by Minimum Inhibitory Concentration (MIC) (SXPS2) and are well suited for quality control. ABWT and ECWT are widely susceptible to aminoglycoside antibiotics, whereas PAWT and KPWT harbor a single aminoglycoside-modifying enzyme (AGME) that targets 4,6-substituted-2-deoxystreptamine AGs. […]

[7] = tested on: Escherichia coli (Eco, ECWT, ATCC #25922); test: MIC against Escherichia coli reference strain ECWT; conditions: for MIC: ATCC25922
From the text: For evaluation of efficacy, we assembled panels of representative gram-negative pathogens, including Pseudomonas aeruginosa (Pae, PAWT, ATCC #27853), Klebsiella pneumoniae (Kpn, KPWT, ATCC #700603), Acinetobacter baumannii (Aba, ABWT, ATCC #BAA-747) and Escherichia coli (Eco, ECWT, ATCC #25922). These reference strains are useful indicator organisms to characterize compound activity against bacteria from a pathogenic genus in the absence of multiple resistance mechanisms. Two strains (PAWT and ECWT) are reference strains cited within the Clinical and Laboratory Standards Institute (CLSI) Standards for susceptibility testing by Minimum Inhibitory Concentration (MIC) (SXPS2) and are well suited for quality control. ABWT and ECWT are widely susceptible to aminoglycoside antibiotics, whereas PAWT and KPWT harbor a single aminoglycoside-modifying enzyme (AGME) that targets 4,6-substituted-2-deoxystreptamine AGs.

[8] = tested on: Acinetobacter baumannii (Aba, ABWT, ATCC #BAA-747); test: MIC against Acinetobacter baumannii reference strain ABWT; conditions: for MIC: ATCCBAA747
From the text: as §2

[9] = tested on: Klebsiella pneumoniae (Kpn, KPWT, ATCC #700603); test: MIC against Klebsiella pneumoniae reference strain KPWT; conditions: Klebsiella pneumoniae KPWT, Table 2; for MIC: ATCC700603
From the text: as §2, with “These reference strains are useful indicator organisms to characterize compound activity against bacteria from a pathogenic genus in the absence of multiple resistance mechanisms.” left out

[10] = tested on: Klebsiella pneumoniae screening panel KPWT, KR1, KR2, KR3; test: Klebsiella pneumoniae screening panel (KPWT, KR1, KR2, KR3), reference AGs
From the text: Klebsiella pneumoniae (Kpn) and Escherichia coli (Eco) are gram-negative (like Pae), enteric pathogens with increasing clinical relevance. Many clinical isolates of Kpn and Eco harbor extended-spectrum beta-lactamases and are no longer sensitive to most beta-lactam antibiotics. We acquired clinical isolates of Klebsiella pneumoniae and Escherichia coli (Micromyx LLC, Kalamazoo, Mich.) and used this panel to test compounds for anti-enteric activity.

Molecule	MIC90 [1] [µg/mL]	MIC90 [2] [µg/mL]	MIC PR2 [3] [µg/mL]	MIC PR1 [4] [µg/mL]	MIC PR3 [5] [µg/mL]	MIC PAWT [6] [µg/mL]	other results
CC(C)(O/N=C(\C(=O)N[C@@H]1C(=O)N2C(C(=O)[O-])=C(C[n+]3ccccc3)CS[C@H]12)c1csc(N)n1)C(=O)O [ceftazidime]	≥ 64	≥ 64					
NCC[C@H](O)C(=O)N[C@@H]1C[C@H](N)[C@@H](O[C@H]2O[C@H](CN)[C@@H](O)[C@H](O)[C@H]2O)[C@@H](F)[C@H]1O[C@H]1O[C@H](CNC(=O)[C@H](N)CCCNC(N)=O)[C@@H](O)[C@H](N)[C@H]1O [SXP1212-56″-7]			16 (≈ 21.5 µM)	16 (≈ 21.5 µM)	128 (≈ 172 µM)	4 (≈ 5.38 µM)	
CO/N=C(\C(=O)N[C@@H]1C(=O)N2C(C(=O)[O-])=C(C[N+]3(C)CCCC3)CS[C@H]12)c1csc(N)n1 [cefepime]	≥ 64	≥ 64					
gentamycin			>64	8	>64	1	MIC ECWT [7]: 0.5 µg/mL; MIC ABWT [8]: 0.25 to 0.5 µg/mL; MIC KPWT [9]: 8 µg/mL
C[C@@H](O)[C@H]1C(=O)N2C(C(=O)O)=C(SCCN=CN)C[C@H]12 [imipenem]	≥ 64	≥ 64					
CCN1CCN(C(=O)N[C@@H](C(=O)N[C@@H]2C(=O)N3[C@@H]2SC(C)(C)[C@@H]3C(=O)O)c2ccccc2)C(=O)C1=O [piperacillin]	≥ 64	≥ 64					
NC[C@H]1O[C@H](O[C@H]2[C@H](O)[C@@H](O[C@H]3O[C@H](CO)[C@@H](O)[C@H](N)[C@H]3O)[C@H](N)C[C@@H]2N)[C@H](N)[C@@H](O)[C@@H]1O [kanamycin B]			>64	64 (≈ 132 µM)	>64	16 (≈ 33.1 µM)	MIC ECWT [7]: 2 µg/mL (≈ 4.14 µM); MIC ABWT [8]: 0.5 to 1 µg/mL; potency against Klebsiella pneumoniae test panel [10]: limited to no activity; MIC KPWT [9]: 16 µg/mL (≈ 33.1 µM)
CN[C@@H]1[C@H](O)[C@H](NC)[C@H]2O[C@@]3(O)C(=O)C[C@@H](C)O[C@H]3O[C@@H]2[C@H]1O [spectinomycin]							MIC [3]: > 64 µg/mL; MIC [7]: 8 to 16 µg/mL (≈ 24.1 to 48.1 µM); MIC [4]: > 64 µg/mL; MIC [8]: 16 µg/mL (≈ 48.1 µM); MIC [5]: > 64 µg/mL; MIC [6]: > 64 µg/mL; MIC [9]: 64 µg/mL (≈ 193 µM)
C[C@@H](O)[C@H]1C(=O)N2C(C(=O)O)=C(S[C@@H]3CN[C@H](CNS(N)(=O)=O)C3)[C@H](C)[C@H]12 [doripenem]	≥ 64	≥ 64					
CO/N=C(\C(=O)N[C@@H]1C(=O)N2C(C(=O)O)=C(CSc3nc(=O)c(=O)[nH]n3C)CS[C@H]12)c1csc(N)n1 [ceftriaxone]	≥ 64	≥ 64					
C[C@@H](O)[C@H]1C(=O)N2C(C(=O)O)=C(S[C@@H]3CN[C@H](C(=O)Nc4cccc(C(=O)O)c4)C3)[C@H](C)[C@H]12 [ertapenem]	≥ 64	≥ 64					
C[C@@H](O)[C@H]1C(=O)N2C(C(=O)O)=C(S[C@@H]3CN[C@H](C(=O)N(C)C)C3)[C@H](C)[C@H]12 [meropenem]	≥ 64	≥ 64					
CN[C@@H]1[C@@H](O)[C@@H](O[C@@H]2[C@@H](O)[C@H](O[C@H]3OC(CN)=CC[C@H]3N)[C@@H](N)C[C@H]2N)OC[C@]1(C)O [sisomycin]			>64	4 (≈ 8.94 µM)	>64	0.25 to 0.5	MIC KPWT [9]: 1 to 2 µg/mL
NC[C@@H]1CC[C@@H](N)[C@@H](O[C@H]2[C@H](O)[C@@H](O[C@H]3O[C@H](CO)[C@@H](O)[C@H](N)[C@H]3O)[C@H](N)C[C@@H]2N)O1 [dibekacin]							MIC [3]: > 64 µg/mL; MIC [7]: 1 to 2 µg/mL (≈ 2.21 to 4.43 µM); MIC [4]: 4 µg/mL (≈ 8.86 µM); MIC [8]: 0.25 µg/mL (≈ 0.554 µM); MIC [5]: > 64 µg/mL; potency against Klebsiella pneumoniae test panel [10]: limited to no activity; MIC [6]: 0.25 to 0.5 µg/mL (≈ 0.554 to 1.11 µM); MIC PAWT ([6]; listed as DIB): 0.25 to 0.5 µg/mL; MIC [9]: 16 µg/mL (≈ 35.4 µM)
NC[C@@H]1O[C@H](O[C@H]2[C@@H](O)[C@H](O[C@@H]3[C@@H](O)[C@H](N)C[C@H](N)[C@H]3O[C@H]3O[C@H](CN)[C@@H](O)[C@H](O)[C@H]3N)O[C@@H]2CO)[C@H](N)[C@@H](O)[C@@H]1O [neomycin]			8 to 16	32 (≈ 52.1 µM)	>64	32 (≈ 52.1 µM)	MIC ECWT [7]: 1 µg/mL (≈ 1.63 µM); MIC ABWT [8]: 0.25 to 0.5 µg/mL; MIC KPWT [9]: 4 to 8 µg/mL
C[C@H]1[C@H](NC(=O)/C(=N\OC(C)(C)C(=O)O)c2csc(N)n2)C(=O)N1S(=O)(=O)O [aztreonam]	≥ 64	≥ 64					
CC(C)[C@H](N)C(=O)NC[C@H]1O[C@H](O[C@@H]2[C@H](F)[C@H](O[C@H]3O[C@H](CN)[C@@H](O)[C@H](O)[C@H]3O)[C@@H](N)C[C@H]2NC(=O)[C@@H](O)CCN)[C@H](O)[C@@H](N)[C@@H]1O [SXP1212-56″-8]			8 (≈ 11.7 µM)	8 (≈ 11.7 µM)	64 (≈ 93.3 µM)	4 (≈ 5.83 µM)	
NC[C@H]1O[C@H](O[C@H]2[C@H](O)[C@@H](O[C@H]3O[C@H](CO)[C@@H](O)[C@H](N)[C@H]3O)[C@H](N)C[C@@H]2N)[C@H](O)[C@@H](O)[C@@H]1O [kanamycin A]			>64	>64	>64	>64	MIC ECWT [7]: 4 µg/mL (≈ 8.26 µM); MIC ABWT [8]: 1 µg/mL (≈ 2.06 µM); potency against Klebsiella pneumoniae test panel [10]: limited to no activity; MIC KPWT [9]: 32 µg/mL (≈ 66 µM)
C[C@H]1COc2c(N3CCN(C)CC3)c(F)cc3c(=O)c(C(=O)O)cn1c23 [levofloxacin]	≥ 64	≥ 64					
NC[C@H]1O[C@H](O[C@H]2[C@H](O)[C@@H](O[C@H]3O[C@H](CO)[C@@H](O)[C@H](N)[C@H]3O)[C@H](N)C[C@@H]2N)[C@H](N)C[C@@H]1O [tobramycin]	≥ 64	≥ 64					MIC [3]: > 64 µg/mL; MIC [7]: 1 µg/mL (≈ 2.14 µM); MIC [4]: 2 µg/mL (≈ 4.28 µM); MIC [8]: 0.25 µg/mL (≈ 0.535 µM); MIC [5]: > 64 µg/mL; MIC [6]: 0.25 µg/mL (≈ 0.535 µM); MIC [9]: 8 µg/mL (≈ 17.1 µM)
[H]/N=C(/N)N[C@H]1[C@H](O)[C@@H](O)[C@H](O[C@@H]2O[C@@H](C)[C@](O)(C=O)[C@H]2O[C@@H]2O[C@@H](CO)[C@H](O)[C@@H](O)[C@@H]2NC)[C@@H](N/C(N)=N\[H])[C@@H]1O [streptomycin]							MIC [3]: 16 µg/mL (≈ 27.5 µM); MIC [7]: 4 µg/mL (≈ 6.88 µM); MIC [4]: 64 µg/mL (≈ 110 µM); MIC [8]: 2 to 4 µg/mL (≈ 3.44 to 6.88 µM); MIC [6]: 16 µg/mL (≈ 27.5 µM); MIC [9]: 1 to 2 µg/mL (≈ 1.72 to 3.44 µM)
